From patent publication US5578622A, “Isothiazole derivatives and their uses” (Asamura Patent Office, priority 1994, dated 1996) come the findings set out here.

Assay [1] has as its system Candida albicans IFO 1270. The assay can be described thus: In vitro antimycotic activity on Candida albicans. Type of assay: cell-based. Conditions: IFO1270, 10 (ppm), SGB, 37° C., 48 hours, turbidity at 650 nm, read-out: Antimycotic activity (growth inhibitory rate), C.albicans. The procedure:
3-1 In vitro antimycotic activity on Candida albicans
Candida albicans IFO 1270 pre-cultured on a Sabouraud's glucose agar (SGA) plate medium at 37° C. […] was suspended in a sterilized physiological salt solution. The number of fungi in the resulting suspension was counted with a globulimeter, and adjusted so as to be 1×10^7 cell/ml with a sterilized physiological salt solution. This solution was used as an inoculum solution. Thereafter, 0.1 ml of this solution and 0.1 ml of a dimethyl sulfoxide (DMSO) solution of the test compound were added to 9.8 ml of Sabouraud's glucose broth (SGB), and shake-cultured at 37° C. for 48 hours. After culture, the medium turbidity was measured at 650 nm, and the growth-inhibitory rate of the fungus was calculated according to the following equation.
Growth inhibitory rate (%)=(1-W/Y)×100
Y: Medium turbidity of DMSO control group
W: Medium turbidity of test compound group
From this inhibitory rate, the antimycotic activity was shown by the symbols A to D. The test results of the test compounds are shown in Table 4.

The test system of assay [2] is Aspergillus fumigatus TIMM 0063. Briefly: In vitro antimycotic activity on Aspergillus fumigatus. Conditions: TIMM0063, 10 (ppm), Casitone agar, 37° C., 48 hours, read-out: Antimycotic activity (growth inhibitory rate), A.fumigatus. Type of assay: cell-based. The method, then:
3-2 In vitro antimycotic activity on Aspergillus fumigatus.
To Aspergillus fumigatus TIMM 0063 precultured at 37° C. for 48 hours on a potato dextrose agar (PDA) slant medium was added a sterilized physiological salt solution containing 0.1%(W/V) Tween 80. After conidia were made free from the solution, the solution was filtered through a sterilized two-sheet gauze to remove the mycelium mass. The number of the conidia in the resulting suspension was counted with a globulimeter and adjusted so as to be 1×10^5 conidia/ml with a sterilized physiological salt solution containing 0.1%(W/V) Tween 80. This solution was used as an inoculum solution. Casitone agar plate medium containing the DMSO solution of the test compound in a rate of 1% (V/V) was inoculated with the inoculum solution at four places thereof with a microplanter, and cultured with the medium allowed to stand at 37° C. for 48 hours. After culture, the diameter of the mycelium disks cultivated at the four inoculated parts was measured, and its mean value was obtained. The growth inhibitory rate was calculated according to the following equation, and the antimycotic activity was shown in the same manner as in Test Example 3-1.
Growth inhibitory rate (%)=(1-W'/Y')×100
Y': Diameter of mycelium disk of DMSO control group
W': Diameter of mycelium disk of test compound group

The subject of assay [3] is Trichophyton mentagrophytes IFO 5810. Briefly: In vitro antimicrobial activity on Trichophyton mentagrophytes. Conditions: 10 (ppm); SGB, 27° C., 7 days. Set-up: key: A: Fungus is not observed at all with the naked eye.; B: Presence of fungus is slightly observed on shaking the test tube.; C: Fungus of about less than one-fourth that of the DMSO control group is observed with the naked eye.; Fungus of about less than half that of the DMSO control group is observed with the naked eye. Type of assay: cell-based. The procedure:
3-3 In vitro antimicrobial activity on Trichophyton mentagrophytes To Trichophyton mentagrophytes IFO 5810 precultured at 27° C. for 2 to 3 weeks on a Sabouraud's glucose agar (SGA) slant medium was added a sterilized physiological salt solution containing 0.1% (W/V) Tween 80. After conidia were made free from the solution, the solution was filtered through a sterilized two-sheet gauze to remove the mycelium mass. The number of the conidia in the resulting suspension was counted with a globulimeter and adjusted so as to be 1×10^6 conidia/ml with a sterilized physiological salt solution containing 0.1%(W/V) Tween 80. This solution was used as an inoculum solution. Thereafter, 0.1 ml of this solution and 0.1 ml of the dimethyl sulfoxide (DMSO) solution of the test compound were added to 9.8 ml of Sabouraud's glucose broth (SGB), and shake-cultured at 27° C. for 7 days.

Another assay concerns Aspergillus niger. The assay can be described thus: Test for wood rotting-preventing effect (mycelium growth inhibition on malt extract agar). Type of assay: cell-based. The following applies: 28° C.±2° C., 2 to 10 days, read-out: Rotting preventing effect (mycelium growth-inhibitory rate), ASN. The procedure:
(§1) The following fungi were cultured in agar media, respectively, and mycelial disks on the media were stamped out together with the agar using a cork borer of 4 mm in diameter. The resulting mycelial disks on agar were used as an inoculum. Each test compound of 50 ppm was added to a malt extract agar medium and added in parts to Petri dishes. The above prepared inoculum was put on the Petri dishes and cultured at 28° C.±2° C. Two to ten days after inoculation, the diameter of the mycelial disk of each fungus was measured, and the mycelium growth-inhibitory rate was obtained according to the following equation. [formula] The mycelium growth-inhibitory rate (%) is indicated by the following symbols as a fungicidal effect on each fungus, and the results are shown in Table 2. | ASN: Aspergillus niger

The next assay concerns Rhizopus nigricans. The assay is described as above. Type of assay: cell-based. Conditions: Rhizopus stolonifer, 28° C.±2° C., 2 to 10 days, read-out: Rotting preventing effect (mycelium growth-inhibitory rate), RHN. The procedure: as §1, with “RHN: Rhizopus nigricans” for “ASN: Aspergillus niger”
A further assay concerns Trichoderma viride. The assay is described as above. Type of assay: cell-based. The following applies: 28° C.±2° C., 2 to 10 days, read-out: Rotting preventing effect (mycelium growth-inhibitory rate), TRV. The method, then: as §1, with “TRV: Trichoderma viride” for “ASN: Aspergillus niger”
A further assay deals with Tyromyces palustris. The assay is described as above. The following applies: 28° C.±2° C., 2 to 10 days, read-out: Rotting preventing effect (mycelium growth-inhibitory rate), TYP. Type of assay: cell-based. The method, then:
as §1, with “TYP: Tyromyces palustris” for “ASN: Aspergillus niger”

Another assay concerns Rhizoctonia solani. The assay can be described thus: Test for controlling effect on sheath blight of rice. Type of assay: in vivo. Conditions: 120 h, 200 ppm spray, 24 hours after inoculation, rice 4-leaf stage, five days after inoculation, read-out: Controlling effect (control of disease), Sheath blight of rice. The procedure:
2-3 Test for controlling effect on sheath blight of rice (Rhizoctonia solani) Rice seedlings at the 4-leaf stage were inoculated with the mycelium of sheath blight of rice (Rhizoctonia solani). After 24 hours, a test medicine solution adjusted to 200 ppm was sprayed onto the seedlings. After air-drying, the seedlings were placed in a humid room for 24 hours where the temperature was kept at 28° C. and humidity was kept at 98%. Thereafter, the seedlings were transferred to a greenhouse, and five days after inoculation, the degree of infected area was examined. The control of disease was calculated by comparison with that in the untreated plot. The control of disease is shown as a controlling effect in the same manner as in Test Example 2-1.

Assay [4] concerns Pseudoperonospora cubensis. The assay can be described thus: Test for controlling effect on downy mildew of cucumber. Conditions: 168 h, 200 ppm spray, one day before inoculation, cucumber 2-leaf stage, read-out: Controlling effect (control of disease), Downy mildew of cucumber. Type of assay: in vivo. The procedure: 2-2 Test for controlling effect on downy mildew of cucumber (Pseudoperonospora cubensis) A test compound adjusted to 200 ppm was sprayed onto cucumber at the 2-leaf stage cultivated in pots. After one day, the cucumber was inoculated by spraying the zoospore suspension of Pseudoperonospora cubensis. After inoculation, the cucumber was placed in a 25° C.-humid room for 1 day and then in a greenhouse for 6 days. Thus, the cucumber was made to be infected with downy mildew. The control of disease of the test compound is calculated by comparing the degree of infection of each leaf with that in the untreated plot. The control of disease is shown as a controlling effect in the same manner as in Test Example 2-1.

For assay [5], the system named is Gibberella fujikuroi ("Bakanae" disease of rice). The assay can be described thus: Test for rice seed-disinfecting effect. Conditions: Fusarium fujikuroi, 504 h, seed immersion 25° C. 24 hours, three weeks after treatment, read-out: Controlling effect (control of disease), "Bakanae" disease of rice. Type of assay: in vivo. The method, then:
2-1 Test for rice seed-disinfecting effect
Unhulled rice infected with Gibberella fujikuroi ("Bakanae" disease of rice) was immersed in a test compound adjusted to 1000 ppm at 25° C. for 24 hours. Water was lightly swished off the seed, which was then sowed and germinated for two days. Three weeks after treatment with the solution containing the compound, the rate of the infected seedlings was examined, and the control of disease was calculated by comparison with that of the untreated plot. The control of disease was shown as a controlling effect on the basis of the following standard.

Turning to `CCSc1snc(OCOC(C)(C)C#CI)c1C#N` [Compound 101], the inhibition of growth at 10 µg/mL in assay [1] and in assay [2] was 100% in each case. The “Antimycotic activity (degree of growth, naked eye), T.mentagrophytes” value (shortened to “Antimycotic activity”) in [3] was “A”.
On to `CCOCCSc1snc(OCC#CI)c1C#N` [Compound 16], for which the inhibition of growth at 10 µg/mL in assay [1] and in assay [2] was 100% throughout. The inhibition at 50 ppm with Aspergillus niger was 80 to 94%; in the assay on Rhizopus nigricans it was 80 to 94%; in the assay on Trichoderma viride, 95 to 100%; in the assay on Tyromyces palustris, 95 to 100%. Also, the “Antimycotic activity” value in assay [3] is listed as “A”.
On to `CC(C#CI)OCOc1nsc(SC(F)F)c1C#N` (stereo not shown) [Compound 111], for which the inhibition of growth at 10 µg/mL in [1] and in assay [2] was 100% each time. The inhibition at 50 ppm in the assay on Aspergillus niger, in the assay on Rhizopus nigricans, in the assay on Trichoderma viride and in the assay on Tyromyces palustris was 95 to 100% each time. For the same compound, in [3], the “Antimycotic activity” value is on record as “A”.
With `N#Cc1c(OCOCC#CI)nsc1SCOCC#CI` [Compound 141], the inhibition of growth at 10 µg/mL in assay [1] and in assay [2] was 100% in each case. For the same compound, the “Antimycotic activity” value in [3] is “A”.
Turning to `CC(C)Oc1nsc(SCOCC#CI)c1C#N` [Compound 56], the inhibition of growth at 10 µg/mL in assay [1] and in [2] was 100% in each case. Moreover, in assay [3], the “Antimycotic activity” value is “A”.
Turning to `COC(=O)Sc1snc(OCC#CI)c1C#N` [Compound 20], the inhibition at 50 ppm is 80 to 94% in the assay with Aspergillus niger, 60 to 79% in the assay with Rhizopus nigricans, 95 to 100% with Trichoderma viride and 95 to 100% in the assay on Tyromyces palustris. In addition, the pest or weed control at 200 ppm lay within 60 to 79% with Rhizoctonia solani and 95 to 100% in assay [4]. Besides, the pest or weed control at 1000 ppm in assay [5] lay in the range of 80 to 94%.
On to `CC(OCC#CI)Oc1nsc(N(C)C)c1C#N` (stereo not shown) [Compound 123], for which the inhibition of growth at 10 µg/mL in [1] and in assay [2] was 100% throughout. The “Antimycotic activity” value in assay [3] is “A”.
Regarding `CC(C)Oc1nsc(OCCC#CI)c1C#N` [Compound 83], the inhibition of growth at 10 µg/mL in assay [1] and in assay [2] was 100% throughout. Moreover, the “Antimycotic activity” value in assay [3] is listed as “A”.
In the case of `CC(C)Sc1snc(OCOCC#CI)c1C#N` [Compound 88], the inhibition of growth at 10 µg/mL in assay [1] and in assay [2] was 100% each time. Besides, in [3], the “Antimycotic activity” value is given as “A”.
Take `N#Cc1c(OCC#CI)nsc1N1CCOCC1` [Compound 35]: the inhibition at 50 ppm in the assay with Aspergillus niger was 95 to 100%; with Rhizopus nigricans, 80 to 94%; in the assay with Trichoderma viride, 95 to 100%; with Tyromyces palustris, 95 to 100%. Moreover, the results for the pest or weed control at 200 ppm (in the assay with Rhizoctonia solani; in [4]) were 80 to 94% and 95 to 100%, respectively. Also, the pest or weed control at 1000 ppm in [5] fell in the range of 80 to 94%.
As for `CC(C)COc1snc(OCC#CI)c1C#N` [Compound 29], the inhibition of growth at 10 µg/mL in assay [1] and in [2] was 100% throughout. Besides, in assay [3], the “Antimycotic activity” value is recorded as “A”.
As for `CCSc1snc(OCCC#CI)c1C#N` [Compound 71], the inhibition of growth at 10 µg/mL in assay [1] and in assay [2] was 100% each time. In addition, in [3], the “Antimycotic activity” value is “A”.
